According to patent publication US20170181431A1, “HERBICIDAL COMPOSITIONS CONTAINING 4-AMINO-3-CHLORO-6-(4-CHLORO-2-FLUORO-3-METHOXYPHENYL) PYRIDINE-2-CARBOXYLIC ACID OR A DERIVATIVE THEREOF AND A CELL MEMBRANE DISRUPTOR HERBICIDE OR A DERIVATIVE THEREOF” (Dow AgroSciences LLC, priority 2015, published 2017):

Tested on: Conyza species (fleabane, ERISS)
Test: Field trial of post-emergence (foliar) herbicidal activity, percent weed control visually rated
Type: in vivo
Conditions: Cmpd 1 alone 5 g ae/ha, Table 2
Source text: Treatments consisted of the methyl ester of 4-amino-3-chloro-6-(4-chloro-2-fluoro-3-methoxyphenyl)pyridine-2-carboxylic acid (Cmpd 1) tankmixed with saflufenacil or paraquat. The form of compound of formula (I) was applied on an acid equivalent basis, and saflufenacil and paraquat were applied on an active ingredient basis. Saflufenacil was applied as a commercial formulation containing 700 grams per kilogram (g/kg). Paraquat was applied as a commercial formulation containing 200 g/L.
Field trials were conducted under standard field conditions. Plot sizes varied from 2 meters (m) wide by 5 m long. Treatments were applied with small plot backpack sprayers, using pressurized carbon dioxide (CO2) as propellant. Pressure varied from 40-45 pounds per square inch (PSI), with spray tips typically of a Flat Fan type applying water diluent at 100 liters per hectare (L/ha). Boom size was 2 m in width. Weed sizes varied, but all treatments were applied as post-emergence treatments to weeds from 2 leaf to 2 tiller growth stages varying from 2-15 inches in height. No additional adjuvant was mixed with the treatments applied in the field.
Results in Tables 1 to 2 are field trial results for foliar applied compositions. The values reported are percent (%) control visually rated. The predicted percent (%) weed contol was determined using Colby's equation.
The following abbreviations are used in Tables 1 to 2: ERISS=Conyza species (fleabane, ERISS) g ae/ha=grams acid equivalent per hectare g ai/ha=grams active ingredient per hectare Mean % weed control=observed value of percent (%) control rated visually Predicted mean % weed control=expected value of percent (%) control as calculated by Colby's equation Cmpd 1=methyl 4-amino-3-chloro-6-(4-chloro-2-fluoro-3-methoxyphenyl)pyridine-2-carboxylate, halauxifen-methyl, or ARYLEX® DAA=days after application

For `COC(=O)c1nc(-c2ccc(Cl)c(OC)c2F)cc(N)c1Cl` [Cmpd 1, methyl 4-amino-3-chloro-6-(4-chloro-2-fluoro-3-methoxyphenyl)pyridine-2-carboxylate], the “Cmpd 1 Mean % weed control” value (17DAA) was 33.75%, the “Cmpd 1 Mean % weed control” value (28DAA) was 33.75% and the “Cmpd 1 Mean % weed control” value (43DAA) was 40%.
